Literature values as cited in patent US10653742B2, “Anti-inflammatory use of liquid phytocomplexes from olive” (FATTORIA LA VIALLA DI GIANNI, ANTONIO E BANDINO LO …, priority 2013, dated 2020).

Details: also in high concentrations

**Q.** For `OCCc1ccc(O)c(O)c1` [Hydroxytyrosol], which “toxic effect on in vivo administration” value is on record?
**A.** no toxic effect
